Experimental findings from patent US12358915B2, “METTL3 inhibitory compounds” (STORM THERAPEUTICS LTD., priority 2019, dated 2025) are described below.

In general, IC50 refers to the concentration at which inhibition is half-maximal.

The experiment concerns the target T1, METTL3/14 (Homo sapiens, UniProt Q86U44).
T1 construct: The enzyme used was full-length his-tagged METTL3; His; made in house
As to the kind of experiment: METTL3/14 methyltransferase assay (METTL3_14 RFMS, RapidFire mass spectrometry).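 Note: recombinant His-tagged METTL3 with FLAG-tagged METTL14 from baculovirus, SAH product quantified by mass spectrometry against isotope-labelled internal standards, 60 min at room temperature, scaled between no-RNA and DMSO-only wells.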 In kind it is biochemical.

Setting [1] is: 5 nM METTL3/14, 0.2 μM RNA substrate, 0.5 μM SAM, lower limit of the assay IC50=5 nM, Compounds 1-62, read-out: METTL3_14 RFMS IC50.
Where [2] appears, read: 5 nM METTL3/14, 0.2 μM RNA substrate, 0.5 μM SAM, lower limit of the assay IC50=5 nM, Compounds 63-265, read-out: METTL3_14 RFMS IC50.
The mark [3] stands for this setting: 5 nM METTL3/14, 0.2 μM RNA substrate, 0.5 μM SAM, lower limit of the assay IC50=5 nM, Compounds 266-351, read-out: METTL3_14 RFMS IC50.

Where two headings read alike, the source gives them in different places.

T1 sequence (Q86U44 whole entry): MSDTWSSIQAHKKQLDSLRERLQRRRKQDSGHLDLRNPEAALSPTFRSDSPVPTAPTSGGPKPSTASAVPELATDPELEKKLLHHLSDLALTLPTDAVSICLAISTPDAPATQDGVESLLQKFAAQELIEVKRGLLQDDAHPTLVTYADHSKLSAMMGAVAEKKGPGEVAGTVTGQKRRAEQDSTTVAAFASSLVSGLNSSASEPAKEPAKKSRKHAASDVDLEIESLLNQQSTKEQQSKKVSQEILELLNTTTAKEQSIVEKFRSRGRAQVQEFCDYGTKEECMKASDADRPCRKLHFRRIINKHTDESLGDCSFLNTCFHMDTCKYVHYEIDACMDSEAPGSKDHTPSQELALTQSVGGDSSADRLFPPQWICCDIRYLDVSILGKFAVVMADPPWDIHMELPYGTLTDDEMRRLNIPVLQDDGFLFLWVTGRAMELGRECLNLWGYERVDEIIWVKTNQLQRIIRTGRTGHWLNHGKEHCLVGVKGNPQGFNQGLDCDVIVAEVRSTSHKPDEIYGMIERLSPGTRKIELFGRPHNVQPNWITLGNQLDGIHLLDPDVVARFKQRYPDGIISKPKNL
T1 sequence (Q9HCE5 whole entry partner): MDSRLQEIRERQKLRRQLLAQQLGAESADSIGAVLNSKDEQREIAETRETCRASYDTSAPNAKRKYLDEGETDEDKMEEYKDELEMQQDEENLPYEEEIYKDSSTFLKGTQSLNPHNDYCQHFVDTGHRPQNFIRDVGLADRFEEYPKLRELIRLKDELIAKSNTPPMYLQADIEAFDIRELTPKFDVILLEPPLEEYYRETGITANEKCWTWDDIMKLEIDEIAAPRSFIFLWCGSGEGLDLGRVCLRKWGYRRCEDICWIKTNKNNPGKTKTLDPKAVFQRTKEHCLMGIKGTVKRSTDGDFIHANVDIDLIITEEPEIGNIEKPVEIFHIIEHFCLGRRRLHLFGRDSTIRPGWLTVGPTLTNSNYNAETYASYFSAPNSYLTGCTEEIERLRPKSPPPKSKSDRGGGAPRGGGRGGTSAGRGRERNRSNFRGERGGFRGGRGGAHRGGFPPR

Take `O=C(NCc1cn2cc(O)ccc2n1)c1cccc2[nH]ncc12` [Compound 43, N-({6-hydroxyimidazo[1,2-a]pyridin-2-yl}methyl)-1H-indazole-4-carboxamide]: under setting [1], the IC50 is 1.29 µM.
Take `O=C(NCc1cn2cc(CNCCF)ccc2n1)c1cc(=O)n2ccccc2n1` [Compound 128, N-[(6-{[(2-fluoroethyl)amino]methyl}imidazo [1,2-a]pyridin-2-yl)methyl]-4-oxo-4H-pyrido[1,2-a] pyrimidine-2-carboxamide]: the concentration for half-maximal inhibition (IC50) under setting [2] came to 0.333 µM.
As for `NCCc1ccc2nc(CNC(=O)c3cc(=O)n4ccccc4n3)cn2c1` [Compound 63, N-{[6-(2-aminoethyl)imidazo[1,2-a]pyridin-2-yl]methyl}-4-oxo-4H-pyrido[1,2-a]pyrimidine-2-carboxamide], the 50% inhibitory concentration (IC50) under setting [2] was 0.299 µM.
As to `O=C(c1cccc2[nH]ncc12)N1CC=C(c2cn3ccccc3n2)C1` [Compound 31, 4-(3-{imidazo[1,2-a]pyridin-2-yl}-2,5-dihydro-1H-pyrrole-1-carbonyl)-1H-indazole], the IC50 under setting [1] is 9.35 µM.
For `NC(Cc1ccccc1)Cc1ccc2nc(CNC(=O)c3cc(=O)n4ccccc4n3)cn2c1` (stereo not shown) [Compound 247, N-{[6-(2-amino-3-phenylpropyl)imidazo[1,2-a]pyridin-2-yl]methyl}-4-oxo-4H-pyrido[1,2-a]pyrimidine-2-carboxamide], the IC50 under setting [2] is 1.08 µM.
Regarding `COc1cccc(-c2ccc3nc(CNC(=O)c4cccc5[nH]ncc45)cn3c2)c1` [Compound 34, N-{[6-(3-methoxyphenyl)imidazo[1,2-a]pyridin-2-yl]methyl}-1H-indazole-4-carboxamide], the IC50 under setting [1] was 5.35 µM.
For `O=C(NCc1cn2cc(CNCCc3ccccc3)ccc2n1)c1cc(=O)n2ccccc2n1` [Compound 53, 4-oxo-N-[(6-{[(2-phenylethyl)amino]methyl}imidazo[1,2-a]pyridin-2-yl)methyl]-4H-pyrido[1,2-a]pyrimidine-2-carboxamide], the half-inhibitory concentration (IC50) runs as follows: under setting [1], 0.038 µM; (read-out: IC50) 0.027 µM.
As for `O=C(NCc1cn2cc(CNC3CC(F)(F)C3)ccc2n1)c1cc(=O)n2ccccc2n1` [Compound 110, N-[(6-{[(3,3-difluorocyclobutyl)amino]methyl}imidazo[1,2-a]pyridin-2-yl)methyl]-4-oxo-4H-pyrido[1,2-a] pyrimidine-2-carboxamide], under setting [2], the IC50 was found to be 0.102 µM.
With `CC(O)c1ccc2nc(CNC(=O)c3cccc4[nH]ncc34)cn2c1` (stereo not shown) [Compound 47, N-{[6-(1-hydroxyethyl)imidazo[1,2-a]pyridin-2-yl]methyl}-1H-indazole-4-carboxamide], the IC50 under setting [1] came out at 3.98 µM.
In the case of `N#Cc1ccc2nc(CNC(=O)c3cc(=O)n4ccccc4n3)cn2c1` [Compound 18, N-({6-cyanoimidazo[1,2-a]pyridin-2-yl}methyl)-4-oxo-4H-pyrido[1,2-a]pyrimidine-2-carboxamide], the concentration for half-maximal inhibition (IC50) under setting [1] worked out at 1.86 µM.
In the case of `CC1CCN(Cc2ccc3nc(CNC(=O)c4cc(=O)n5ccccc5n4)cn3c2)CC1` [Compound 137, N-({6-[(4-methylpiperidin-1-yl)methyl]imidazo[1,2-a]pyridin-2-yl}methyl)-4-oxo-4H-pyrido[1,2-a] pyrimidine-2-carboxamide], the 50% inhibitory concentration (IC50) under setting [2] was 0.0178 µM.
For the molecule `O=C(NCc1cn2cc(Nc3cccnc3)ccc2n1)c1cccc2[nH]ncc12` [Compound 37, N-({6-[(pyridin-3-yl)amino]imidazo[1,2-a]pyridin-2-yl}methyl)-1H-indazole-4-carboxamide], the IC50 under setting [1] was found to be 4.74 µM.
`O=C(NCc1cn2cc(CN3CCCC3)ccc2n1)c1cc(=O)n2ccccc2n1` [Compound 133, 4-oxo-N-({6-[(pyrrolidin-1-yl)methyl]imidazo[1,2-a]pyridin-2-yl}methyl)-4H-pyrido[1,2-a] pyrimidine-2-carboxamide]: under setting [2], the IC50 is 0.48 µM.
As for `O=C(NCc1cn2cc(Cl)ccc2n1)c1cccc2[nH]ncc12` [Compound 4, N-({6-chloroimidazo[1,2-a]pyridin-2-yl}methyl)-1H-indazole-4-carboxamide], under setting [1], the IC50 was 6.07 µM.
With `O=C(NCc1cn2ccc(Br)cc2n1)c1cc(=O)n2ccccc2n1` [Compound 29, N-({7-bromoimidazo[1,2-a]pyridin-2-yl}methyl)-4-oxo-4H-pyrido[1,2-a]pyrimidine-2-carboxamide], under setting [1], the IC50 is 2.78 µM.
Consider `O=C(NCc1cn2cc(CNCC3CC4(CCC4)C3)ccc2n1)c1cc(=O)n2ccccc2n1` [Compound 277, 4-oxo-N-[[6-[(spiro[3.3]heptan-2-ylmethylamino)methyl]imidazo[1,2-a]pyridin-2-yl]methyl]pyrido[1,2-a]pyrimidine-2-carboxamide], for which, under setting [3], the half-maximal inhibitory concentration (IC50) is 0.0763 µM.
As to `O=C(NCc1cn2cc(-c3cccc(Cl)c3)ccc2n1)c1cccc2[nH]ncc12` [Compound 36], under setting [1], the concentration for half-maximal inhibition (IC50) is 3.91 µM.
Consider `CC1(CNCc2ccc3nc(CNC(=O)c4cc(=O)n5ccccc5n4)cn3c2)CCCO1` (stereo not shown) [Compound 160, N-{[6-({[(2-methyloxolan-2-yl)methyl]amino}methyl)imidazo [1,2-a]pyridin-2-yl]methyl}-4-oxo-4H-pyrido [1,2-a]pyrimidine-2-carboxamide], for which the IC50 under setting [2] came out at 0.0932 µM.
For the molecule `NCc1ccc2nc(CNC(=O)c3cccc4[nH]ncc34)cn2c1` [Compound 39, N-{[6-(aminomethyl)imidazo[1,2-a]pyridin-2-yl]methyl}-1H-indazole-4-carboxamide], the half-inhibitory concentration (IC50) under setting [1] turned out to be 1.47 µM.
On to `CC(C)(C)CNCc1ccc2nc(CNC(=O)c3cc(=O)c4ccccc4o3)cn2c1` [Compound 265, N-[(6-{[(2,2-dimethylpropyl)amino]methyl}imidazo[1,2-a]pyridin-2-yl)methyl]-4-oxo-4H-chromene-2-carboxamide], for which the IC50 under setting [2] was found to be 0.0506 µM.
Turning to `O=C(NCc1cn2cc(CNC3CCOC3)ccc2n1)c1cc(=O)n2ccccc2n1` (stereo not shown) [Compound 122, 4-oxo-N-[(6-{[(oxolan-3-yl)amino]methyl}imidazo[1,2-a]pyridin-2-yl)methyl]-4H-pyrido[1,2-a] pyrimidine-2-carboxamide], the half-maximal inhibitory concentration (IC50) under setting [2] was 0.11 µM.
On to `CC1(CNCc2ccc3nc(CNC(=O)c4cc(=O)c5ccccc5o4)cn3c2)CCCCC1` [Compound 222, N-{[6-({[(1-methylcyclohexyl)methyl]amino}methyl)imidazo [1,2-a]pyridin-2-yl]methyl}-4-oxo-4H-chromene-2-carboxamide], for which, under setting [2], the IC50 amounted to 0.0339 µM.
On the same count and under the same terms, next, `O=C(NCc1cn2cc(CNCCC(F)(F)F)ccc2n1)c1cc(=O)n2ccccc2n1` [Compound 85, 4-oxo-N-[(6-{[(3,3,3-trifluoropropyl)amino]methyl}imidazo[1,2-a]pyridin-2-yl)methyl]-4H-pyrido[1,2-a]pyrimidine-2-carboxamide]: 0.0255 µM; `O=C(NCc1cn2cc(CN3CCC(Oc4ccccc4)CC3)ccc2n1)c1cc(=O)n2ccccc2n1` [Compound 156, 4-oxo-N-({6-[(4-phenoxypiperidin-1-yl)methyl]imidazo[1,2-a]pyridin-2-yl}methyl)-4H-pyrido[1,2-a] pyrimidine-2-carboxamide]: 0.0617 µM.
On to `O=C(NCc1cn2cc(CNc3cccc(Cl)c3)ccc2n1)c1cc(=O)n2ccccc2n1` [Compound 158, N-[(6-{[(3-chlorophenyl)amino]methyl}imidazo[1,2-a]pyridin-2-yl)methyl]-4-oxo-4H-pyrido[1,2-a]pyrimidine-2-carboxamide], for which the 50% inhibitory concentration (IC50) under setting [2] came out at 3.81 µM.
As for `O=C(NCc1cn2cc(CNCC3CCCCC3)ccc2n1)c1cc(Br)cc2[nH]ncc12` [Compound 187, 6-bromo-N-[(6-{[(cyclohexylmethyl)amino]methyl}imidazo[1,2-a]pyridin-2-yl)methyl]-1H-indazole-4-carboxamide], the IC50 under setting [2] is 0.0441 µM.
Take `O=C(NCc1cn2cc(CNC3(C4CC4)CC3)ccc2n1)c1cc(=O)n2ccccc2n1` [Compound 197, N-({6-[({[1,1′-bi(cyclopropane)]-1-yl}amino)methyl]imidazo [1,2-a]pyridin-2-yl}methyl)-4-oxo-4H-pyrido [1,2-a]pyrimidine-2-carboxamide]: under setting [2], the IC50 was 0.0848 µM.
Take `O=C(NCc1cn2cc(CNCC3CCCCC3)ccc2n1)c1cc(Cl)cc2[nH]ncc12` [Compound 190, 6-chloro-N-[(6-{[(cyclohexylmethyl)amino]methyl}imidazo[1,2-a]pyridin-2-yl)methyl]-1H-indazole-4-carboxamide]: the IC50 under setting [2] came to 0.0561 µM.
For the molecule `O=C(NCc1cn2cc(CNC3(C4CCCCC4)CC3)ccc2n1)c1cc(=O)n2ccccc2n1` [Compound 98, N-[(6-{[(1-cyclohexyl-cyclopropyl)amino]methyl}imidazo[1,2-a]pyridin-2-yl)methyl]-4-oxo-4H-pyrido [1,2-a]pyrimidine-2-carboxamide], the concentration for half-maximal inhibition (IC50) under setting [2] was determined as 0.0456 µM.
The same measure, in the same setting: as for `C[C@@H]1COC[C@H](c2ccc3nc(CNC(=O)c4cc(=O)n5ccccc5n4)cn3c2)N1` [Example 233, N-({6-[(3S,5R)-5-methylmorpholin-3-yl]imidazo[1,2-a]pyridin-2-yl}methyl)-4-oxo-4H-pyrido[1,2-a]pyrimidine-2-carboxamide], the figure is 1.39 µM.
As for `COc1cc(Br)cc2c1OCC(c1ccc3nc(CNC(=O)c4cc(=O)n5ccccc5n4)cn3c1)NC2` (stereo not shown) [Example 332], the 50% inhibitory concentration (IC50) under setting [3] was found to be 1.7 µM.
For `O=C(NCc1cn2cc(CNCC3(F)CCCCC3)ccc2n1)c1cc(=O)n2ccccc2n1` [Compound 91, N-{[6-({[(1-fluorocyclohexyl)methyl]amino}methyl)imidazo [1,2-a]pyridin-2-yl]methyl}-4-oxo-4H-pyrido[1,2-a]pyrimidine-2-carboxamide], under setting [2], the IC50 was 0.0576 µM.
On to `O=C(NCc1cn2cc(CNC(=O)C3CCCCC3)ccc2n1)c1cc(=O)n2ccccc2n1` [Compound 238, N-({6-[(cyclohexylformamido)methyl]imidazo[1,2-a]pyridin-2-yl}methyl)-4-oxo-4H-pyrido[1,2-a]pyrimidine-2-carboxamide], for which the IC50 under setting [2] worked out at 0.85 µM.
